Experimental data as given in US20210317134A1, “UBIQUITIN-SPECIFIC-PROCESSING PROTEASE 7 (USP7) MODULATORS AND USES THEREOF” (RAPT THERAPEUTICS, INC., priority 2019, published 2021).

Biological target: USP7 (Homo sapiens, UniProt Q93009)
Test: USP7 inhibitory potency (Table 1)
Assay type: biochemical

USP7, sequence (Q93009 whole entry): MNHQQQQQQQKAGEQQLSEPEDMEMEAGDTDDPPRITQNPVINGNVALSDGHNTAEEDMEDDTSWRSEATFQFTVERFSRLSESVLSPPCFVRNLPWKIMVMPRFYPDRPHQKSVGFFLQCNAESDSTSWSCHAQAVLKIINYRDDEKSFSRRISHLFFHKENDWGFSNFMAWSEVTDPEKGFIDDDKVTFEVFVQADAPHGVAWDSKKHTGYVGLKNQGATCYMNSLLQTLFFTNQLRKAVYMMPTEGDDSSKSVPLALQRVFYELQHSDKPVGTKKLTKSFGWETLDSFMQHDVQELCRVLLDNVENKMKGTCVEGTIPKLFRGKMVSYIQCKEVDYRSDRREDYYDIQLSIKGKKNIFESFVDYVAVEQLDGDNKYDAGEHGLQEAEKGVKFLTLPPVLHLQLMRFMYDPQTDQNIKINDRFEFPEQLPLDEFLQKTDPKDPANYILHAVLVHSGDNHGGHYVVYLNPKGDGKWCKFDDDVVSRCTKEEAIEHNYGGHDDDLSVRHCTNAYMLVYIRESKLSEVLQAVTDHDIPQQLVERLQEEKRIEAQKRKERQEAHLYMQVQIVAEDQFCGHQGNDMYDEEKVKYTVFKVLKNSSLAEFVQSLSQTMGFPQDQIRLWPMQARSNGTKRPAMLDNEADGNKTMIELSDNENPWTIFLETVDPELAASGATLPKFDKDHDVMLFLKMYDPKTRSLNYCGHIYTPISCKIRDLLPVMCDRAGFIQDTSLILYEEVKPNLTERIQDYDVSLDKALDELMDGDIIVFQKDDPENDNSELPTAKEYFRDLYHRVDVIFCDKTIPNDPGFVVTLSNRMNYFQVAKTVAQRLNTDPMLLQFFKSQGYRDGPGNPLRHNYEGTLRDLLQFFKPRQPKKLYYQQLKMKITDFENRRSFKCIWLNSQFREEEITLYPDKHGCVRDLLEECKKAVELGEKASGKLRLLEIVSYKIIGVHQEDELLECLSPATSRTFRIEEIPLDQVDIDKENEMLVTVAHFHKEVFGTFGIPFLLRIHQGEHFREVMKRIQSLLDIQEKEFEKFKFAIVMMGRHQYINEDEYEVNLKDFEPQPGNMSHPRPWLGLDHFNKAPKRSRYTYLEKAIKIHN

| IC50 [µM] | SMILES |
| --- | --- |
| < 1 | CNC(=O)CCc1cc2nccc(-c3cc(Cl)cc4c3O[C@@H](C(=O)N3CCNCC3)C4)c2s1 [(R)-3-(7-(5-chloro-2-(piperazine-1-carbonyl)-2,3-dihydrobenzofuran-7-yl)thieno[3,2-b]pyridin-2-yl)-N-methylpropanamide] |
| < 1 | CC1CC(=O)N(Cc2cc3nccc(-c4cc(Cl)cc5c4O[C@@H](C(=O)N4CCNCC4)C5)c3s2)C1=O (stereo partly drawn) [1-((7-((R)-5-chloro-2-(piperazine-1-carbonyl)-2,3-dihydrobenzofuran-7-yl)thieno[3,2-b]pyridin-2-yl)methyl)-3-methylpyrrolidine-2,5-dione] |
| 1 to 10 | O=C([C@H]1Cc2cc(Cl)cc(-c3ccnc4ccsc34)c2O1)N1CCC(N2CCCCC2)CC1 [(R)-[1,4′-bipiperidin]-1′-yl(5-chloro-7-(thieno[3,2-b]pyridin-7-yl)-2,3-dihydrobenzofuran-2-yl)methanone] |
| < 1 | O=C([C@H]1Cc2cc(Cl)cc(-c3ccnc4cc(CN5C(=O)CCNC5=O)sc34)c2O1)N1CCNCC1 [(R)-3-((7-(5-chloro-2-(piperazine-1-carbonyl)-2,3-dihydrobenzofuran-7-yl)thieno[3,2-b]pyridin-2-yl)methyl)dihydropyrimidine-2,4(1H,3H)-dione] |
| 10 to 30 | Cc1cc(-c2cc(Cl)cc3c2OC(C(=O)N2CCNCC2)C3)ccn1 (stereo not drawn) [(5-Chloro-7-(2-methylpyridin-4-yl)-2,3-dihydrobenzofuran-2-yl)(piperazin-1-yl)methanone] |
| < 1 | O=C([C@H]1Cc2cc(Cl)cc(-c3ccnc4cc(CN5C(=O)CSC5=O)sc34)c2O1)N1CCNCC1 [(R)-3-((7-(5-chloro-2-(piperazine-1-carbonyl)-2,3-dihydrobenzofuran-7-yl)thieno[3,2-b]pyridin-2-yl)methyl)thiazolidine-2,4-dione] |
